Experimental data: patent US8883835B2, “Plant disease controlling composition and method for controlling plant disease” (priority 2008, dated 2014)

Tested on: Sclerotinia sclerotiorum
Experiment: Controlling test against Sclerotinia sclerotiorum on cucumber by foliage spraying (Test Example 1)
Type: in vivo
Details: single compound, 12° C. and high humidity for 6 days
Description: A sand loam was filled into a plastic pot, and cucumber (Sagamihanjiro) was seeded, and grown in a greenhouse for 12 days. A flowable of the compound I, and an emulsifiable concentrate of any one of the compound II to the compound IV were diluted with water separately, and they were tank-mixed to prepare a tank mix solution containing the compound I and any one of the compounds II to IV at predetermined concentrations. The tank mix solution was subjected to foliage spraying so that it was sufficiently adhered to a leaf surface of the cucumber. After spraying, the plant was air-dried, and a PDA medium containing hyphae of Sclerotinia sclerotiorum was placed on the cucumber leaf surface. After seeding, this was placed under 12° C. and high humidity for 6 days, the controlling effect was investigated. Separately, for comparison, a flowable of the compound I, or an emulsifiable concentrate of any one compound of the compound II to the compound IV was diluted with water to prepare a water-diluted solution containing the predetermined amount of any one of compounds I to IV, and the similar controlling test was carried out. Further, for calculating an effective value, an onset area rate (ratio of onset area occupied in leaf area examined) in each treatment group was determined. The effective value was calculated by the Equation 1. […] A: Onset area rate of non-treated group B: Onset area rate of treated group In general, a effective value expected in treatment by mixing given two kinds of active ingredient compounds, i.e., an expected effective value is calculated by a Colby calculation equation of the Equation 2. E=X+Y−(X×Y)/100 “Equation 2” X: Effective value obtained by treatment with M ppm of the compound I Y: Effective value obtained by treatment with N ppm of the compound II, III or IV E: Effective value expected in treatment with M ppm of the compound I and N ppm of the compound II, III or IV (expected effective value) In addition, a synergistic effect was shown herein by a value calculated by the following Equation 3.

[1] = active ingredient concentration 3.1 ppm

Fc1ccc([C@]2(Cn3cncn3)O[C@H]2c2ccccc2Cl)cc1 (racemic) [Compound IV, (2RS,3SR)-1-[3-(2-chlorophenyl)-2,3-epoxy-2-(4-fluorophenyl)propyl]-1H-1,2,4-triazole]
Actual effective value [1]: 6%

CC1(C)CCC(Cc2ccc(Cl)cc2)C1(O)Cn1cncn1 (stereo not drawn) [Compound II, (1RS,5RS;1RS,5SR)-5-(4-chlorobenzyl)-2,2-dimethyl-1-(1H-1,2,4-triazol-1-ylmethyl)cyclopentanol]
Actual effective value (active ingredient concentration 0.8 ppm): 0% | Actual effective value [1]: 5%

Clc1ccc(C2(Cn3cncn3)CC(Br)CO2)c(Cl)c1 (stereo not drawn) [Compound III, 1-[(2RS,4RS:2RS,4SR)-4-bromo-2-(2,4-dichlorophenyl)tetrahydrofurfuryl]-1H-1,2,4-triazole]
Actual effective value [1]: 1%

C=CCSC(=O)n1c(N)c(-c2ccccc2C)c(=O)n1C(C)C [Compound I]
Actual effective value [1]: 58%
